Reference: patent US20190322960A1, “FRAGRANCE COMPOSITIONS AND METHODS OF USE THEREOF” (TAKASAGO INTERNATIONAL CORPORATION, priority 2016, published 2019)
Blank lines part the entries; values can stand above or below the compound they belong to.

Key:
salivary cortisol = experiment: Stress test (timed mathematical and word test), salivary cortisol of panelists exposed to fragrance; type: in vivo, human; conditions: for effect on salivary cortisol levels as compared to the control (in words): exposed panelists, stress test; for % Change in Cortisol (i.e., before versus after stress): panelists exposed during stress test, saliva before and immediately after stress test, DPG solvent, DPG control 10.8%
Protocol: (§1) Stress was induced in each panelist using a timed mathematical and word test, which was administered to panelists in a small group competition setting to induce stress in each of the panelists. At set time intervals during the test, each panelist was exposed to either a single fragrance compound or to a DPG control.
(§2) Saliva was collected for each panelist before and immediately after the stress test. Saliva samples were assayed for salivary alpha-amylase activity and salivary cortisol levels using a commercially available assay kit (e.g., Salimetrics®).
(§3) Table 1-B summarizes the percent change (i.e., before stress versus after stress) in the salivary cortisol levels of panelists exposed to fragrance compounds of the present disclosure during the stress test. In addition, the table illustrates the statistical significance of the change in salivary cortisol levels (i.e., p-value or probability value, P) of each of the fragrance compounds as compared to DPG, representing the change in the control (i.e., just DPG without a fragrance compound before stress and after stress).
(§4) Saliva was collected before and immediately after the stress test. Saliva samples were assayed for salivary alpha-amylase activity and salivary cortisol levels using a commercially available assay kit (e.g., Salimetrics®).
as §3, with “5-B” for “1-B”

salivary alpha-amylase = experiment: Stress test (timed mathematical and word test), salivary alpha-amylase of panelists exposed to fragrance; type: in vivo, human; conditions: for effect on salivary alpha-amylase levels as compared to the DPG control (in words): exposed panelists, stress test; for % Change in Alpha-amylase (i.e., before versus after stress): panelists exposed during stress test, saliva before and immediately after stress test, DPG solvent, DPG control 51.9%
Protocol: as §1, §2
as §3, with “Table 1-A” for “Table 1-B”, “salivary alpha-amylase” for “salivary cortisol”, “in alpha-amylase” for “in salivary cortisol”
as §4
as §3, with “Table 5-A” for “Table 1-B”, “salivary alpha-amylase” for “salivary cortisol”, “in alpha-amylase” for “in salivary cortisol”

SMILES: CC1=CCC(C(C)CC2CCCC2=O)CC1 (centres unmarked) [2-(2-(4-methyl-3-cyclohexen-1-yl)propyl)cyclopentanone]
effect on salivary cortisol levels as compared to the control (in words) (salivary cortisol): the levels of salivary cortisol were limited | % Change in Cortisol (i.e., before versus after stress) (salivary cortisol): −10.6% | effect on salivary alpha-amylase levels as compared to the DPG control (in words) (salivary alpha-amylase): limited the increase in salivary alpha-amylase levels | % Change in Alpha-amylase (i.e., before versus after stress) (salivary alpha-amylase): 33.5%

% Change in Alpha-amylase (i.e., before versus after stress) (salivary alpha-amylase): −15.9%
SMILES: C=C(C)[C@H]1CC=C(C)CC1 [Limonene, limonene]
% Change in Cortisol (i.e., before versus after stress) (salivary cortisol): 21.05% | effect on salivary alpha-amylase levels as compared to the DPG control (in words) (salivary alpha-amylase): limited the increase in salivary alpha-amylase levels

SMILES: CC(=O)OC(C)(C)C1CC=C(C)CC1 (centres unmarked) [Terpinyl Acetate, terpinyl acetate]
effect on salivary cortisol levels as compared to the control (in words) (salivary cortisol): the levels of salivary cortisol were limited | % Change in Cortisol (i.e., before versus after stress) (salivary cortisol): −9.1% | effect on salivary alpha-amylase levels as compared to the DPG control (in words) (salivary alpha-amylase): limited the increase in salivary alpha-amylase levels | % Change in Alpha-amylase (i.e., before versus after stress) (salivary alpha-amylase): 16.5%
